Assay results: US11596639B2, “Substituted indole Mcl-1 inhibitors” (Vanderbilt University, priority 2016, dated 2023)
Where two headings read alike, the source gives them in different places.

Legend:
Mcl-1 = Mcl-1 (Homo sapiens (Human), UniProt Q07820); assay: TR-FRET binding assay, FITC-Bak peptide and MBP-tagged Mcl-1; settings: read-out: Ki for Inhibition of Mcl-1 by TR-FRET assay
Description: Compounds are diluted in DMSO in a 16-point, semilog serial dilution scheme. […] The plate was mixed and incubated for 3 hours at room temperature. […] TR-FRET signal is plotted and IC50 and Ki values are calculated in the same manner as the fluorescence polarization anisotropy based competition assays.

[1] = system: H929 human cancer cell lines; assay: Cellular viability / proliferation (Cell TiterGlo, 72 h); assay type: cell-based
Outline: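 H929 cells plated at 1,000/well in 10% FBS medium received a 2-fold serial compound dilution (top 50 μM, DMSO <1%) 24 h later. After 72 h, viability was read by CellTiter-Glo luminescence. IC50 came from a four-parameter fit.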

[2] = Homo sapiens, NCI-H929, 72 h, read-out: GI50 on cellular proliferation of H929 human cancer cell lines, H929 cells, 72 h, Cell TiterGlo, 10% FBS

Mcl-1, sequence (Q07820 172-327): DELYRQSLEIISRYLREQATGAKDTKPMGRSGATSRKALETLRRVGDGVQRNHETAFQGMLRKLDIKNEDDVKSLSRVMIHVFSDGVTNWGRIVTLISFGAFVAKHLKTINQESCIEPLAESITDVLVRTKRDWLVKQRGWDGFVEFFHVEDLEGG

SMILES | Ki (Mcl-1) [nM] | GI50 [1, 2] [nM] | GI50 ([1]; H929 cells, 72 h, Cell TiterGlo, 10% FBS, read-out: GI50 on cellular proliferation of H929 human cancer cell lines) [nM]
COCCOCCOc1cc(N2C[C@@H](C)n3c(c(CCCOc4cc(C)c(Cl)c(C)c4)c4ccc(Cl)c(-c5c(C)ncnc5C)c43)C2=O)c2c(c1)cc(C(=O)O)n2C [Example 631, (R)-7-(7-chloro-10-(3-(4-chloro-3,5-dimethylphenoxy)propyl)-6-(4,6-dimethylpyrimidin-5-yl)-4-methyl-1-oxo-3,4-dihydropyrazino[1,2-a]indol-2(1H)-yl)-5-(2-(2-methoxyethoxy)ethoxy)-1-methyl-1H-indole-2-carboxylic acid] | < 0.2 | 300 | –
Cc1cc(OCCCc2c3n(c4c(-c5c(C)nn(C)c5C)c(Cl)ccc24)[C@H](C)CN(c2cn(CC(=O)N(C)C)c4ccc(-c5ncn(C)n5)cc24)C3=O)cc(C)c1Cl [Example 560, (R)-2-(3-(7-Chloro-10-(3-(4-chloro-3,5-dimethylphenoxy)propyl)-4-methyl-1-oxo-6-(1,3,5-trimethyl-1H-pyrazol-4-yl)-3,4-dihydropyrazino[1,2-a]indol-2(1H)-yl)-5-(1-methyl-1H-1,2,4-triazol-3-yl)-1H-indol-1-yl)-N,N-dimethylacetamide] | 0.53 | 270 | –
Cc1cc(OCCCc2c3n(c4c(-c5c(C)nn(C)c5C)c(Cl)ccc24)[C@H](C)CN(c2cn(CC4(C)COC4)c4ccc(C(=O)O)cc24)C3=O)cc(C)c1Cl [Example 616] | < 0.2 | – | 340
Cc1cc(OCCCc2c3n(c4c(-c5c(C)nn(C)c5C)c(Cl)ccc24)[C@H](C)CN(c2cc(CN4CCN(C)CC4)cc4c(C(=O)O)cn(C)c24)C3=O)cc(C)c1Cl [Example 490, (R)-7-(7-Chloro-10-(3-(4-chloro-3,5-dimethylphenoxy)propyl)-4-methyl-1-oxo-6-(1,3,5-trimethyl-1H-pyrazol-4-yl)-3,4-dihydropyrazino[1,2-a]indol-2(1H)-yl)-1-methyl-5-((4-methylpiperazin-1-yl)methyl)-1H-indole-3-carboxylic acid] | 0.29 | 810 | –
Cc1cc(OCCCc2c3n(c4c(-c5c(C)nn(C)c5C)c(Cl)ccc24)[C@H](C)CN(c2cn(C)c4ncc(C(=O)O)cc24)C3=O)cc(C)c1Cl [Example 575, (R)-3-(7-chloro-10-(3-(4-chloro-3,5-dimethylphenoxy)propyl)-4-methyl-1-oxo-6-(1,3,5-trimethyl-1H-pyrazol-4-yl)-3,4-dihydropyrazino[1,2-a]indol-2(1H)-yl)-1-methyl-1H-pyrrolo[2,3-b]pyridine-5-carboxylic acid] | < 0.2 | 740 | –
COc1cc(N2C[C@@H](C)n3c(c(CCCOc4cc(C)c(Cl)c(C)c4)c4ccc(Cl)c(-c5c(C)ncnc5C)c43)C2=O)c2c(c1)cc(C(=O)O)n2Cc1cc(C)ccn1 [Example 565, (R)-7-(7-chloro-10-(3-(4-chloro-3,5-dimethylphenoxy)propyl)-6-(4,6-dimethylpyrimidin-5-yl)-4-methyl-1-oxo-3,4-dihydropyrazino[1,2-a]indol-2(1H)-yl)-5-methoxy-1-((4-methylpyridin-2-yl)methyl)-1H-indole-2-carboxylic acid] | < 0.2 | < 200 | –
COCc1nc(-c2ccc3c(c2)c(N2C[C@@H](C)n4c(c(CCCOc5cc(C)c(Cl)c(C)c5)c5ccc(Cl)c(-c6c(C)nn(C)c6C)c54)C2=O)cn3C)nn1C [Example 674, (R)-7-Chloro-10-(3-(4-chloro-3,5-dimethylphenoxy)propyl)-2-(5-(5-(methoxymethyl)-1-methyl-1H-1,2,4-triazol-3-yl)-1-methyl-1H-indol-3-yl)-4-methyl-6-(1,3,5-trimethyl-1H-pyrazol-4-yl)-3,4-dihydropyrazino[1,2-a]indol-1(2H)-one] | 2.1 | 210 | –
Cc1cc(N2C[C@@H](C)n3c(c(CCCOc4cc(C)c(Cl)c(C)c4)c4ccc(Cl)c(-c5c(C)nn(C)c5C)c43)C2=O)c2c(c1)cc(C(=O)O)n2Cc1cc(N2CCNCC2)ccn1 [Example 553, (R)-7-(7-chloro-10-(3-(4-chloro-3,5-dimethylphenoxy)propyl)-4-methyl-1-oxo-6-(1,3,5-trimethyl-1H-pyrazol-4-yl)-3,4-dihydropyrazino[1,2-a]indol-2(1H)-yl)-5-methyl-1-((4-(piperazin-1-yl)pyridin-2-yl)methyl)-1H-indole-2-carboxylic acid] | < 0.2 | 2800 | –
COCCn1cc(C(=O)O)c2cc(OCCN(C)C)cc(N3C[C@@H](C)n4c(c(CCCOc5cc(C)c(Cl)c(C)c5)c5ccc(Cl)c(-c6c(C)nn(C)c6C)c54)C3=O)c21 [Example 671, (R)-7-(7-chloro-10-(3-(4-chloro-3,5-dimethylphenoxy)propyl)-4-methyl-1-oxo-6-(1,3,5-trimethyl-1H-pyrazol-4-yl)-3,4-dihydropyrazino[1,2-a]indol-2(1H)-yl)-5-(2-(dimethylamino)ethoxy)-1-(2-methoxyethyl)-1H-indole-3-carboxylic acid] | 0.32 | 890 | –
Cc1cc(OCCCc2c3n(c4c(-c5c(C)cc(OCc6ccccn6)cc5C)c(Cl)ccc24)[C@H](C)CN(c2cn(C)c4ccc(C(=O)O)cc24)C3=O)cc(C)c1Cl [Example 497, (R)-3-(7-chloro-10-(3-(4-chloro-3,5-dimethylphenoxy)propyl)-6-(2,6-dimethyl-4-(pyridin-2-ylmethoxy)phenyl)-4-methyl-1-oxo-3,4-dihydropyrazino[1,2-a]indol-2(1H)-yl)-1-methyl-1H-indole-5-carboxylic acid] | 1.3 | 1700 | –
Cc1cc(OCCCc2c3n(c4c(-c5c(C)nn(C)c5C)c(Cl)ccc24)[C@H](C)CN(c2cc(COCC4COC4)cc4cc(C(=O)O)n(C)c24)C3=O)cc(C)c1Cl [Example 692, (R)-7-(7-chloro-10-(3-(4-chloro-3,5-dimethylphenoxy)propyl)-4-methyl-1-oxo-6-(1,3,5-trimethyl-1H-pyrazol-4-yl)-3,4-dihydropyrazino[1,2-a]indol-2(1H)-yl)-1-methyl-5-((oxetan-3-ylmethoxy)methyl)-1H-indole-2-carboxylic acid] | < 0.2 | 390 | –
Cc1cc(OCCCc2c3n(c4c(-c5c(C)nn(C)c5C)c(Cl)ccc24)[C@H](C)CN(c2cc(C(=O)N4CCN(C)CC4)cc4cc(C(=O)O)n(C)c24)C3=O)cc(C)c1Cl [Example 626, (R)-7-(7-chloro-10-(3-(4-chloro-3,5-dimethylphenoxy)propyl)-4-methyl-1-oxo-6-(1,3,5-trimethyl-1H-pyrazol-4-yl)-3,4-dihydropyrazino[1,2-a]indol-2(1H)-yl)-1-methyl-5-(4-methylpiperazine-1-carbonyl)-1H-indole-2-carboxylic acid] | < 0.2 | 4400 | –
Cc1cc(OCCCc2c3n(c4c(-c5c(C)nc(CN6CCN(C)C(=O)C6)nc5C)c(Cl)ccc24)[C@H](C)CN(c2cn(C)c4ccc(-c5ncn(C)n5)cc24)C3=O)cc(C)c1Cl [Example 663, (R)-7-chloro-10-(3-(4-chloro-3,5-dimethylphenoxy)propyl)-6-(4,6-dimethyl-2-((4-methyl-3-oxopiperazin-1-yl)methyl)pyrimidin-5-yl)-4-methyl-2-(1-methyl-5-(1-methyl-1H-1,2,4-triazol-3-yl)-1H-indol-3-yl)-3,4-dihydropyrazino[1,2-a]indol-1(2H)-one] | 0.52 | < 200 | –
Cc1cc(N2C[C@@H](C)n3c(c(CCCOc4cc(C)c(Cl)c(C)c4)c4ccc(Cl)c(-c5c(C)nn(C)c5C)c43)C2=O)c2c(c1)cc(C(=O)O)n2CCO [Example 657, (R)-7-(7-chloro-10-(3-(4-chloro-3,5-dimethylphenoxy)propyl)-4-methyl-1-oxo-6-(1,3,5-trimethyl-1H-pyrazol-4-yl)-3,4-dihydropyrazino[1,2-a]indol-2(1H)-yl)-1-(2-hydroxyethyl)-5-methyl-1H-indole-2-carboxylic acid] | < 0.2 | 610 | –
Cc1cc(OCCCc2c3n(c4c(-c5c(C)nn(C)c5C)c(Cl)ccc24)[C@H](C)CN(c2cn(C)c4ccc(-n5ccnn5)cc24)C3=O)cc(C)c1Cl [Example 668, (R)-7-Chloro-10-(3-(4-chloro-3,5-dimethylphenoxy)propyl)-4-methyl-2-(1-methyl-5-(1H-1,2,3-triazol-1-yl)-1H-indol-3-yl)-6-(1,3,5-trimethyl-1H-pyrazol-4-yl)-3,4-dihydropyrazino[1,2-a]indol-1(2H)-one] | 7.6 | 1500 | –
COc1cc(N2C[C@@H](C)n3c(c(CCCOc4cc(C)c(Cl)c(C)c4)c4ccc(Cl)c(-c5c(C)ncnc5C)c43)C2=O)c2c(c1)cc(C(=O)O)n2C [Example 535, (R)-7-(7-Chloro-10-(3-(4-chloro-3,5-dimethylphenoxy)propyl)-6-(4,6-dimethylpyrimidin-5-yl)-4-methyl-1-oxo-3,4-dihydropyrazino[1,2-a]indol-2(1H)-yl)-5-methoxy-1-methyl-1H-indole-2-carboxylic acid] | < 0.2 | 280 | –
Cc1cc(OCCCc2c3n(c4c(-c5c(C)nn(C)c5C)c(Cl)ccc24)[C@H](C)CN(c2cc(N(C)C(=O)[C@H](C)N(C)C)cc4c(C(=O)O)cn(C)c24)C3=O)cc(C)c1Cl [Example 608, 7-((R)-7-chloro-10-(3-(4-chloro-3,5-dimethylphenoxy)propyl)-4-methyl-1-oxo-6-(1,3,5-trimethyl-1H-pyrazol-4-yl)-3,4-dihydropyrazino[1,2-a]indol-2(1H)-yl)-5-((S)-2-(dimethylamino)-N-methylpropanamido)-1-methyl-1H-indole-3-carboxylic acid] | 0.91 | 304000 | –
